Experimental data taken from ChEMBL document CHEMBL1201862, “PubChem BioAssay data set” (2004).
Activity calls are given as the source filed them.

Legend:
HEK293 [1] = assay: cells; conditions: Homo sapiens
[2] = biological target: Luciferin 4-monooxygenase (Photinus pyralis, UniProt P08659); assay: inhibition of purified Photinus pyralis luciferase – biochemical, luminescence, dose response (AID 1891)
[3] = Luminescence Cell-Based Dose Confirmation HTS to Identify Inhibitors of Platelet Dense Granule Release. [Related pubchem assays: 1663 (Primary HTS), 1678 (Summary of Project)]; assay type: functional
[4] = biological target: T1, High affinity choline transporter 1 (Homo sapiens, UniProt Q9GZV3); assay: human choline transporter blockers, potency – cell-based, 5-point CRC, membrane potential dye, dose response (AID 504840); assay type: functional
T1 sequence (Q9GZV3 whole entry): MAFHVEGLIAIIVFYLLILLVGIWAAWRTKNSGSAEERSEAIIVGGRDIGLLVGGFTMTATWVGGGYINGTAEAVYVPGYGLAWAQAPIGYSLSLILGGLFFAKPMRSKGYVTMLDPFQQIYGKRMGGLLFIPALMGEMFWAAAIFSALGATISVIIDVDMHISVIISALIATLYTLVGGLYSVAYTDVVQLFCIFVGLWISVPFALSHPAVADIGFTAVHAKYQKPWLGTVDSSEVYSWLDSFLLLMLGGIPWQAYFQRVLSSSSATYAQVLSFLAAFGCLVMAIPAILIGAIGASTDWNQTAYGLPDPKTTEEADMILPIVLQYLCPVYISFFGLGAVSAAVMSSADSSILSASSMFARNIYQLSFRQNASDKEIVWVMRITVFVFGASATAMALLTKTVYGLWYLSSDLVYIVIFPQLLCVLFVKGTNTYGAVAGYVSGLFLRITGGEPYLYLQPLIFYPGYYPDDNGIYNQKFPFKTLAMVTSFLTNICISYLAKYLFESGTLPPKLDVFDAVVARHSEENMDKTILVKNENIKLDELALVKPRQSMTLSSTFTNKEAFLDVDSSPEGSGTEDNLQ

[5] = biological target: T1, High affinity choline transporter 1; assay: human choline transporter blockers, potency – cell-based, 10-point CRC, membrane potential dye, dose response (AID 588401); assay type: functional;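 note: membrane potential dye fluorescence of choline-evoked depolarization via CHT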
HEK293 [6] = assay: cells; conditions: Homo sapiens; remark: listed apart in the source

Luciferin 4-monooxygenase, sequence (P08659 whole entry): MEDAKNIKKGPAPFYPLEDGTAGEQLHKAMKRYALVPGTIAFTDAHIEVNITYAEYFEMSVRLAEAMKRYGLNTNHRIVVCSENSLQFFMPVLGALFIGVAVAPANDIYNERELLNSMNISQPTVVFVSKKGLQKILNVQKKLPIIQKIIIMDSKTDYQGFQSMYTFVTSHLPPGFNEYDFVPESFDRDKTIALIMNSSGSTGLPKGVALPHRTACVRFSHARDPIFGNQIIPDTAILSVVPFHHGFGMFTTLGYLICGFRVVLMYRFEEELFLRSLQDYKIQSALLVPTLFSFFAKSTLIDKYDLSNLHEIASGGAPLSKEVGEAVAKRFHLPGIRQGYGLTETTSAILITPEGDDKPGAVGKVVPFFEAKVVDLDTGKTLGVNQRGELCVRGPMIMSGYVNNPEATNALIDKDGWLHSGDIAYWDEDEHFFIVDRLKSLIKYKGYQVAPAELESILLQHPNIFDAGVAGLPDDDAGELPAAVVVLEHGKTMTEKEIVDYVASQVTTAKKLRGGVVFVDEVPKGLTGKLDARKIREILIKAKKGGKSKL

C=C[C@@]1(C)CC(=O)[C@]2(O)[C@@]3(C)[C@@H](O)CCC(C)(C)[C@@H]3[C@H](OC(C)=O)[C@H](O)[C@@]2(C)O1
EC50 (HEK293 [1]): > 59.7 µM (inactive)
EC50 [2]: > 112 µM (not active)
EC50 [3]: 4.26 µM (active)
IC50 [4]: 1.52 µM (active)
IC50 [5]: 0.815 µM (active)
EC50 (HEK293 [6]): > 59.7 µM (inactive)
